Experimental data from US10196393B2, “JAK inhibitors containing a 4-membered heterocyclic amide” (THERAVANCE BIOPHARMA R&D IP, LLC, priority 2017, dated 2019).

Columns and labels:
[1] = test system: IL-13 induced STAT6 phosphorylation in BEAS-2B human lung epithelial cells; assay: Cellular JAKI potency assay (AlphaScreen), BEAS-2B; format: cell-based; settings: BEAS-2B cells
Procedure: Assay 2: Cellular JAKI Potency Assay
The AlphaScreen JAKI cellular potency assay was carried out by measuring interleukin-13 (IL-13, R&D Systems) induced STAT6 phosphorylation in BEAS-2B human lung epithelial cells (ATCC). The anti-STAT6 antibody (Cell Signaling Technologies) was conjugated to AlphaScreen acceptor beads (Perkin Elmer), while the anti-pSTAT6 (pTyr641) antibody (Cell Signaling Technologies) was biotinylated using EZ-Link Sulfo-NHS-Biotin (Thermo Scientific).
BEAS-2B cells were grown at 37° C. in a 5% CO2 humidified incubator in 50% DMEM/50% F-12 medium (Life Technologies) supplemented with 10% FBS (Hyclone), 100 U/mL penicillin, 100 μg/mL streptomycin (Life Technologies), and 2 mM GlutaMAX (Life Technologies). On day 1 of the assay, cells were seeded at a 7,500 cells/well density in white poly-D-lysine-coated 384-well plates (Corning) with 25 μL medium, and were allowed to adhere overnight in the incubator. On day 2 of the assay, the medium was removed and replaced with 12 μL of assay buffer (Hank's Balanced Salt Solution/HBSS, 25 mM HEPES, and 1 mg/ml bovine serum albumin/BSA) containing dose-responses of test compounds. Compounds were serially diluted in DMSO and then diluted another 1000-fold in media to bring the final DMSO concentration to 0.1%. Cells were incubated with test compounds at 37° C. for 1 h, and followed by the addition of 12 μl of pre-warmed IL-13 (80 ng/mL in assay buffer) for stimulation. After incubating at 37° C. for 30 min, the assay buffer (containing compound and IL-13) was removed, and 10 μL of cell lysis buffer (25 mM HEPES, 0.1% SDS, 1% NP-40, 5 mM MgCl2, 1.3 mM EDTA, 1 mM EGTA, and supplement with Complete Ultra mini protease inhibitors and PhosSTOP from Roche Diagnostics). The plates were shaken at ambient temperature for 30 min before the addition of detection reagents. A mixture of biotin-anti-pSTAT6 and anti-STAT6 conjugated acceptor beads was added first and incubated at ambient temperature for 2 h, followed by the addition of streptavidin conjugated donor beads (Perkin Elmer). After a minimum of 2 h incubation, the assay plates were read on the EnVision plate reader. AlphaScreen luminescence signals were recorded and utilized to calculate the percent inhibition values based on DMSO and background controls.
For dose-response analysis, percent inhibition data were plotted vs. compound concentrations, and IC50 values were determined from a 4-parameter robust fit model with the Prism software. Results may also be expressed as the negative logarithm of the IC50 value, pIC50.
Test compounds having a lower IC50 value or higher pIC50 value in this assay show greater inhibition of IL-13 induced STAT6 phosphorylation.

[2] = test system: IL-13 induced pSTAT6 induction in lung tissue; assay: Murine model of IL-13 induced pSTAT6 induction in lung tissue; format: in vivo; settings: mouse lung, 1 mg/mL 50 μL oral aspiration, IL-13 challenge 4 h after dose, lungs at 5 hours
From the text: Assay 4: Murine (Mouse) Model of IL-13 Induced pSTAT6 Induction in Lung Tissue
Il-13 is an important cytokine underlying the pathophysiology of asthma (Kudlacz et al. Eur. J. Pharmacol, 2008, 582,154-161). IL-13 binds to cell surface receptors activating members of the Janus family of kinases (JAK) which then phosphorylate STAT6 and subsequently activates further transcription pathways. In the described model, a dose of IL-13 was delivered locally into the lungs of mice to induce the phosphorylation of STAT6 (pSTAT6) which is then measured as the endpoint.
Adult balb/c mice from Harlan were used in the assay. On the day of study, animals were lightly anesthetized with isoflurane and administered either vehicle or test compound (1 mg/mL, 50 μL total volume over several breaths) via oral aspiration. Animals were placed in lateral recumbency post dose and monitored for full recovery from anesthesia before being returned to their home cage. Four hours later, animals were once again briefly anesthetized and challenged with either vehicle or IL-13 (0.03 μg total dose delivered, 50 μL total volume) via oral aspiration before being monitored for recovery from anesthesia and returned to their home cage. One hour after vehicle or IL-13 administration, lungs were collected for both pSTAT6 detection using an anti-pSTAT6 ELISA (rabbit mAb capture/coating antibody; mouse mAb detection/report antibody: anti-pSTAT6-pY641; secondary antibody: anti-mouse IgG-HRP) and analyzed for total drug concentration as described above in Assay 3.
Selected compounds of the invention were tested in the assay. Activity in the model is evidenced by a decrease in the level of pSTAT6 present in the lungs of treated animals at 5 hours compared to the vehicle treated, IL-13 challenged control animals. The difference between the control animals which were vehicle-treated, IL-13 challenged and the control animals which were vehicle-treated, vehicle challenged dictated the 0% and 100% inhibitory effect, respectively, in any given experiment.

JAK1 = JAK1 (Homo sapiens (Human), UniProt P23458); assay: Biochemical JAK kinase assay (LanthaScreen), JAK1; settings: converted from pIC50 with Cheng-Prusoff equation
Sequence of JAK1 (P23458 whole entry): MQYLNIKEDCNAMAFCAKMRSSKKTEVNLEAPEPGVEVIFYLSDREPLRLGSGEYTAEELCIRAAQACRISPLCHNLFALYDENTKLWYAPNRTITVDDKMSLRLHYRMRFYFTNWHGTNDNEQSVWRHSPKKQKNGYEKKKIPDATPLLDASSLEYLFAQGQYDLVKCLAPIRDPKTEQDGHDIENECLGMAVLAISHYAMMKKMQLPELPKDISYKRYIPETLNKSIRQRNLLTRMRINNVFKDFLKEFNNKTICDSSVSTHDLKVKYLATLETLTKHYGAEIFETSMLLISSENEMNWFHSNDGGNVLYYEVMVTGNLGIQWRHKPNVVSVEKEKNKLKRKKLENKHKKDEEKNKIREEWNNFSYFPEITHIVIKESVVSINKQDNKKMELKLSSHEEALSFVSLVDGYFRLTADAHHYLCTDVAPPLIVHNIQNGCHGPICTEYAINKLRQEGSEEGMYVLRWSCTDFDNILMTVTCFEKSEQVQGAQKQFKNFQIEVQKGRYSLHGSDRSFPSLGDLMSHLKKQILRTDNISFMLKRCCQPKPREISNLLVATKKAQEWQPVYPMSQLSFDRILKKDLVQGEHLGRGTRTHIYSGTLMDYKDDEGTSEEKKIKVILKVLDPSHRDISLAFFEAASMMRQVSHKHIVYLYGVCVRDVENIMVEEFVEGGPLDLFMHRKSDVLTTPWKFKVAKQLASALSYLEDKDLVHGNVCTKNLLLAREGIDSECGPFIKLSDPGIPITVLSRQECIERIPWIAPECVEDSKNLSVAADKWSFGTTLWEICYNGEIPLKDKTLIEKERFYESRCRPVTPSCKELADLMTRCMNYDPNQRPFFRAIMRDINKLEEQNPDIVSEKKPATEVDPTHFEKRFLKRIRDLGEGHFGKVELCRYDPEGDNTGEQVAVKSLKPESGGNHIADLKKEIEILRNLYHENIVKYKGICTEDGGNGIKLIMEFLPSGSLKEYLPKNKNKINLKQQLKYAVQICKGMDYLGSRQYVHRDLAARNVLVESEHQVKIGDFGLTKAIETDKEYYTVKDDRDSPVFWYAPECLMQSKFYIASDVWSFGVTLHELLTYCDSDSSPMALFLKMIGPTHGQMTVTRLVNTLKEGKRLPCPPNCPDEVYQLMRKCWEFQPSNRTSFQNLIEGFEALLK
Procedure: (§1) Assay 1: Biochemical JAK Kinase Assays
(§2) A panel of four LanthaScreen JAK biochemical assays (JAK1, 2, 3 and Tyk2) were carried in a common kinase reaction buffer (50 mM HEPES, pH 7.5, 0.01% Brij-35, 10 mM MgCl2, and 1 mM EGTA). Recombinant GST-tagged JAK enzymes and a GFP-tagged STAT1 peptide substrate were obtained from Life Technologies.
(§3) Serially diluted compounds were pre-incubated with each of the four JAK enzymes and the substrate in white 384-well microplates (Corning) at ambient temperature for 1 h. ATP was subsequently added to initiate the kinase reactions in 10 μL total volume, with 1% DMSO. […] The plates were allowed to incubate at ambient temperature for 1 h before being read on the EnVision reader (Perkin Elmer).
(§4) For dose-response analysis, percent inhibition data were plotted vs. compound concentrations, and IC50 values were determined from a 4-parameter robust fit model with the Prism software (GraphPad Software). Results were expressed as pIC50 (negative logarithm of IC50) and subsequently converted to pKi (negative logarithm of dissociation constant, Ki) using the Cheng-Prusoff equation.

JAK3 = JAK3 (Homo sapiens (Human), UniProt P52333); assay: Biochemical JAK kinase assay (LanthaScreen), JAK3; settings: converted from pIC50 with Cheng-Prusoff equation
Sequence of JAK3 (P52333 whole entry): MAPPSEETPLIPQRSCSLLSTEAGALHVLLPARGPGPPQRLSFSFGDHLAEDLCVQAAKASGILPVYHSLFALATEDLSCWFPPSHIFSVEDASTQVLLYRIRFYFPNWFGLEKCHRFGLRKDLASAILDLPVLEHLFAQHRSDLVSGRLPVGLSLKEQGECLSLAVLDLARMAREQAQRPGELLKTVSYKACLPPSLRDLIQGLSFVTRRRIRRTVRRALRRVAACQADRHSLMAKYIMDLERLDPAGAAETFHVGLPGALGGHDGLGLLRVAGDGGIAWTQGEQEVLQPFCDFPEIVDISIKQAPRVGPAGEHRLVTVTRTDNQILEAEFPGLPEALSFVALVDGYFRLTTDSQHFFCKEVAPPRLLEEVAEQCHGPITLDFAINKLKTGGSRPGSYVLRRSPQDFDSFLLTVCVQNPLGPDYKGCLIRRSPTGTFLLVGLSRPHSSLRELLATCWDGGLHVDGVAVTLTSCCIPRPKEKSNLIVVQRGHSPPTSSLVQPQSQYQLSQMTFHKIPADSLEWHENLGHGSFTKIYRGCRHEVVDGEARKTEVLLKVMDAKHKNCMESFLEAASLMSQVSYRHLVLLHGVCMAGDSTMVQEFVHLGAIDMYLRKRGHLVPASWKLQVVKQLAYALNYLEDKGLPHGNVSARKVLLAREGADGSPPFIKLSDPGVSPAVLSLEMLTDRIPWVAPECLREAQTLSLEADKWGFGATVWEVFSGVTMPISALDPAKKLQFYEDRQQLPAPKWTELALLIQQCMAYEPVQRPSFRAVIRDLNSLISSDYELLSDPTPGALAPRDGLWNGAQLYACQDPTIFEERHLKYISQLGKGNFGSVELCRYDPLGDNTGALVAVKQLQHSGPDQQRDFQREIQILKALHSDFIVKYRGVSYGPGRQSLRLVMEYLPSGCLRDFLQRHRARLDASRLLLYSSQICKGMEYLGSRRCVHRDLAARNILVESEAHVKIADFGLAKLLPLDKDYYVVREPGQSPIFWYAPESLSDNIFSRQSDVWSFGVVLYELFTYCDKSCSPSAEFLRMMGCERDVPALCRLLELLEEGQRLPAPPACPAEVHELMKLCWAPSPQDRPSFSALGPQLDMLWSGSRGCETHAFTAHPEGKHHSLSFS
Procedure: as §1, §2, §3, §4

JAK2 = JAK2 (Homo sapiens (Human), UniProt O60674); assay: Biochemical JAK kinase assay (LanthaScreen), JAK2; settings: converted from pIC50 with Cheng-Prusoff equation
Sequence of JAK2 (O60674 whole entry): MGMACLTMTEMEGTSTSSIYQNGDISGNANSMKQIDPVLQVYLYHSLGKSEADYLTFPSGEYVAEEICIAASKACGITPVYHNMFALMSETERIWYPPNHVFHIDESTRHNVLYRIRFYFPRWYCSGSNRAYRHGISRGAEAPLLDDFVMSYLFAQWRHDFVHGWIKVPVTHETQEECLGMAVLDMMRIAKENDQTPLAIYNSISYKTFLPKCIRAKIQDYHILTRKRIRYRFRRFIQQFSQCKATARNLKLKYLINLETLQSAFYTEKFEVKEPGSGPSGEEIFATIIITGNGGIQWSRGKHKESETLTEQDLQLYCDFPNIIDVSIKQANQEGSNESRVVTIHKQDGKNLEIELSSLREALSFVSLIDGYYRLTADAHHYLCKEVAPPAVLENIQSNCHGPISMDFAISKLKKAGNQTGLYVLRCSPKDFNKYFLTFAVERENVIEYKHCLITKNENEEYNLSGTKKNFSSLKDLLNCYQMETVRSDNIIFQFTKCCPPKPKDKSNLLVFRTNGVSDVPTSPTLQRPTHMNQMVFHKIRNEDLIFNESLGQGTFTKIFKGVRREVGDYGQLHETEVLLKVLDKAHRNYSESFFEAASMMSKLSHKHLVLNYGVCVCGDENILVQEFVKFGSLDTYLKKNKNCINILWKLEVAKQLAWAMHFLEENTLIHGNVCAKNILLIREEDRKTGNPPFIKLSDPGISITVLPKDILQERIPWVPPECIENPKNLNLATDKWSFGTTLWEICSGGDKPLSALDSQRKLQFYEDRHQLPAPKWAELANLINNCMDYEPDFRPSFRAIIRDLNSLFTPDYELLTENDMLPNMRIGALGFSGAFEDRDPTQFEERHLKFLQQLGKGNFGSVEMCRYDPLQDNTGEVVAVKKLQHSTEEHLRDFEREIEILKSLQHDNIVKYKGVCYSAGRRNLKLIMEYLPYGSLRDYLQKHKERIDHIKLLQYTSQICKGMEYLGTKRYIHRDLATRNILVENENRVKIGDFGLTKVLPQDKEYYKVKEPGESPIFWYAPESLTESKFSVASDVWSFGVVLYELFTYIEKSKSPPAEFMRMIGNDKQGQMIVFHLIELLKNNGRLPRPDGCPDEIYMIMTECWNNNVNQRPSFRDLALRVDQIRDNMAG
Procedure: as §1, §2, §3, §4

Row | SMILES | IC50 [1] [nM] | IC50 ([1]; Homo sapiens) [nM] | Ki (JAK3) [nM] | other results
1 | CCc1cc(O)c(F)cc1-c1ccc2c(-c3nc4c([nH]3)CN(CC)C(C(=O)N3CC(N5CCCCC5)C3)C4)n[nH]c2c1 (racemic) [Example 8-4] | 10 |  |  | 
2 | CCCN1Cc2[nH]c(-c3n[nH]c4cc(-c5cc(F)c(O)cc5CC)ccc34)nc2C[C@H]1C(=O)N1CC(C)(N(C)C)C1 [Example 8, (S)-(3-(dimethylamino)-3-methylazetidin-1-yl)(2-(6-(2-ethyl-5-fluoro-4-hydroxyphenyl)-1H-indazol-3-yl)-5-propyl-4,5,6,7-tetrahydro-3H-imidazo[4,5-c]pyridin-6-yl)methanone] |  | 8.5 |  | pSTAT6 inhibition Assay 4 [2]: B (B represents between 40% and 60% inhibition)
3 | CCc1cc(O)c(F)cc1-c1ccc2c(-c3nc4c([nH]3)CN(C)[C@H](C(=O)N3CC(N5CCCCC5)C3)C4)n[nH]c2c1 [Example 8-1] | 6.3 |  |  | Ki (JAK1): 0.06 nM
4 | CCc1cc(O)c(F)cc1-c1ccc2c(-c3nc4c([nH]3)CN(C)[C@H](C(=O)N3CC(N(C)C)C3)C4)n[nH]c2c1 [Example 8-2] | 12.6 |  |  | Ki (JAK1): 0.06 nM
5 | CCCN1Cc2[nH]c(-c3n[nH]c4cc(-c5cc(F)c(O)cc5CC)ccc34)nc2C[C@H]1C(=O)N1CC(N2CCCCC2)C1 [Example 8-5] | 25.1 |  | 0.2 | 
6 | CCc1cc(O)c(F)cc1-c1ccc2c(-c3nc4c([nH]3)CN(C(C)C)[C@H](C(=O)N3CC(N5CCCCC5)C3)C4)n[nH]c2c1 [Example 8-6] | 15.8 |  |  | Ki (JAK1): 0.06 nM
7 | CCc1cc(O)c(F)cc1-c1ccc2c(-c3nc4c([nH]3)CN(C(C)C)[C@H](C(=O)N3CC(N(C)C)C3)C4)n[nH]c2c1 [Example 8-7] | 3.1 |  | 0.2 | pSTAT6 inhibition Assay 4 [2]: B (B represents between 40% and 60% inhibition); Ki (JAK1): 0.06 nM
8 | CCc1cc(O)c(F)cc1-c1ccc2c(-c3nc4c([nH]3)CN(CC)C(C(=O)N3CC(N(C)C)C3)C4)n[nH]c2c1 (stereo not drawn) [Example 8-8] | 5 |  | 0.28 | 
9 | CCc1cc(O)c(F)cc1-c1ccc2c(-c3nc4c([nH]3)CN(C)C(C(=O)N3CC(C)(N(C)C)C3)C4)n[nH]c2c1 (stereo not drawn) [Example 8-9] |  | 7.1 | 0.16 | Ki (JAK1): 0.05 nM
10 | CCc1cc(O)c(F)cc1-c1ccc2c(-c3nc4c([nH]3)CN(CC)C(C(=O)N3CC(C)(N(C)C)C3)C4)n[nH]c2c1 (stereo not drawn) [Example 8-10] |  | 3.2 |  | 
11 | CCCN1Cc2[nH]c(-c3n[nH]c4cc(-c5cc(F)c(O)cc5CC)ccc34)nc2CC1C(=O)N1CC(C)(N(C)C)C1 (stereo not drawn) [Example 8-11] |  | 6.3 |  | 
12 | CCc1cc(O)c(F)cc1-c1ccc2c(-c3nc4c([nH]3)CN(C(C)C)C(C(=O)N3CC(C)(N(C)C)C3)C4)n[nH]c2c1 (stereo not drawn) [Example 8-12] |  | 4 |  | Ki (JAK1): 0.06 nM
13 | CCc1cc(O)c(F)cc1-c1ccc2c(-c3nc4c([nH]3)CN(CC)[C@H](C(=O)N3CC(N5CCCCC5)C3)C4)n[nH]c2c1 [Example 8-14, (S)-(5-ethyl-2-(6-(2-ethyl-5-fluoro-4-hydroxyphenyl)-1H-indazol-3-yl)-4,5,6,7-tetrahydro-3H-imidazo[4,5-c]pyridin-6-yl)(3-(piperidin-1-yl)azetidin-1-yl)methanone] |  | 12.6 |  | 
14 | CCc1cc(O)c(F)cc1-c1ccc2c(-c3nc4c([nH]3)CN(CC)[C@@H](C(=O)N3CC(N5CCCCC5)C3)C4)n[nH]c2c1 [Example 8-15] | 5.6 |  |  | pSTAT6 inhibition Assay 4 [2]: C (C represents between 25% and 40% inhibition); Ki (JAK2): 0.03 nM
15 | CCc1cc(O)c(F)cc1-c1ccc2c(-c3nc4c([nH]3)CN(C(C)C)C(C(=O)N3CC(C)(N(C)C)C3)C4)n[nH]c2c1 (stereo not drawn) [Example 8-16] |  |  |  | pSTAT6 inhibition Assay 4 [2]: C (C represents between 25% and 40% inhibition)
16 | CCc1cc(O)c(F)cc1-c1ccc2c(-c3nc4c([nH]3)CN(C(C)C)[C@H](C(=O)N3CC(C)(N(C)C)C3)C4)n[nH]c2c1 [Example 8-16] |  | 5 |  | 
17 | CCc1cc(O)c(F)cc1-c1ccc2c(-c3nc4c([nH]3)CN(C(C)C)[C@@H](C(=O)N3CC(N(C)C)C3)C4)n[nH]c2c1 [Example 8-17] | 8 |  | 0.13 | 
18 | CCc1cc(O)c(F)cc1-c1ccc2c(-c3nc4c([nH]3)CN(C(C)C)[C@@H](C(=O)N3CC(C)(N(C)C)C3)C4)n[nH]c2c1 [Example 8-18] |  | 4 |  | 
19 | CCCN1Cc2[nH]c(-c3n[nH]c4cc(-c5cc(F)c(O)cc5CC)ccc34)nc2C[C@@H]1C(=O)N1CC(C)(N(C)C)C1 [Example 8-19] |  | 8 |  | 
20 | CCc1cc(O)c(F)cc1-c1ccc2c(-c3nc4c([nH]3)CN(CC)[C@@H](C(=O)N3CC(N(C)C)C3)C4)n[nH]c2c1 [Example 8-20] | 5 |  | 0.2 | 
21 | CCc1cc(O)c(F)cc1-c1ccc2c(-c3nc4c([nH]3)CN(CC)[C@@H](C(=O)N3CC(C)(N(C)C)C3)C4)n[nH]c2c1 [Example 8-21] |  | 4 |  | 
22 | CCc1cc(O)c(F)cc1-c1ccc2c(-c3nc4c([nH]3)CN(CC)[C@H](C(=O)N3CC(N(C)C)C3)C4)n[nH]c2c1 [Example 8-22, (S)-(3-(dimethylamino)azetidin-1-yl)(5-ethyl-2-(6-(2-ethyl-5-fluoro-4-hydroxyphenyl)-1H-indazol-3-yl)-4,5,6,7-tetrahydro-3H-imidazo[4,5-c]pyridin-6-yl)methanone] |  | 5.25 | 0.32 | pSTAT6 inhibition Assay 4 [2]: B (B represents between 40% and 60% inhibition)
23 | CCc1cc(O)c(F)cc1-c1ccc2c(-c3nc4c([nH]3)CN(CC)[C@H](C(=O)N3CC(C)(N(C)C)C3)C4)n[nH]c2c1 [Example 8-23, (S)-(3-(dimethylamino)-3-methylazetidin-1-yl)(5-ethyl-2-(6-(2-ethyl-5-fluoro-4-hydroxyphenyl)-1H-indazol-3-yl)-4,5,6,7-tetrahydro-3H-imidazo[4,5-c]pyridin-6-yl)methanone] |  | 7.7 |  | pSTAT6 inhibition Assay 4 [2]: B (B represents between 40% and 60% inhibition)
